# Data: patent publication US6635648B2, “Combination therapy using sympathetic nervous system antagonists and endothelin antagonists” (Queen's University at Kingston, priority 2000, dated 2003)
# Tests used:
# [1] = Mean arterial pressure (MAP) in conscious catheterised rats after drug treatment; type: in vivo, rat; settings: for MAP after terazosin treatment: terazosin 2 mg/kg i.v., SB209670 treated animals (label SB209670) vs animals without SB209670 (label terazosin); for Δ MAP (from initial baseline; mmHg): Table 3, L-NAME 3 mg/kg in the triple combination
# Procedure: Animals: Male Sprague-Dawley rats (250-300 g) from Charles River Laboratories (St. Constant, Quebec) were individually housed under conditions of 12-hour light/dark cycle at a room temperature of 22-24° C. Purina® rodent chow and tap water were provided ad libitum. Rats were housed for at least one day prior to catheter implantation and allowed a minimum of 3 days to recover from the surgery before any experiments. […] Experiments were performed in accordance with standards established by the Canadian Council of Animal Care.
# Surgery: The surgical technique was based on that described by Thompson et al. (Hypertension. 20(6):809-815, 1992). In brief, rats were anaesthetized with Hypnorm®/Nersed® (1:2:1 ratio of Hypnorm®:H2O:Versed® at a dose rate of 3 ml/kg i.p.). […] An additional catheter sat loosely in the abdominal cavity for intra-peritoneal administration of drugs. All catheters were tunneled subcutaneously, exteriorized at the nape of the neck and sutured into place. The catheters were filled with heparin saline (50 IU/ml) and sealed at the exposed end.
# (§1) Determination of MAP: Three days after surgery, MAP was recorded (PowerLab/8s DAS, ADInstruments, Milford, Mass.). […] An equilibration period of at least 1 hour was allowed prior to any experimentation to establish a steady baseline. […] Mean arterial pressure (MAP) and heart rate (HR) were calculated as an average over five minutes for steady state conditions and 10 seconds for transient drug responses.
# The NOS antagonist L-NAME was administered in increasing doses (1,3,10,30 mg/kg i.v.). MAP was measured after each dose when pressure reached steady state (10 min).
# [2] = Vascular reactivity: depressor response to NO-mimetic sodium nitroprusside (SNP) infusion; type: in vivo, rat; settings: for Change in Vascular Response to SNP: Table 3; for depressor response to SNP: treatment alone at maximal blockade (L-NAME 30 mg/kg), SNP 1-30 μg/kg/min i.v.; for depressor response to SNP in the presence of L-NAME: treatment combined with L-NAME 3 and 30 mg/kg
# Procedure: as §1
# (§2) Data Analysis: Dose responses to N^ω-nitro-L-arginine-methyl ester (L-NAME, Sigma, Mo.) in terazosin- or prazosin-treated animals vs control were compared using unpaired, two-tailed t-test for each dose. […] In all cases a p value less than 0.05 was considered to be statistically significant.
# This set of experiments examined whether alpha-adrenoceptor antagonism and/or complete removal of α-signaling could also alter vascular reactivity to exogenous NO. […] Reactivity was then determined following minimal and maximal NOS blockade by administration of a low dose followed by a high dose of L-NAME (3 and 30 mg/kg L-NAME i.v., respectively). […] In these animals additional dose responses to each NO-donor were performed after initial alpha-adrenoceptor antagonism and before L-NAME treatment. Further assessment of the impact of removal of α1-adrenoceptor signaling was made through ganglionic blockade with hexamethonium (30 mg/kg i.v.). Down-stream sympathetic signaling is effectively abolished by completely blocking the ganglia with hexamethonium.
# [3] = Overshoot and rate of recovery of MAP following 30 second SNP depressor challenge; type: in vivo, rat; settings: for Overshoot (mmHg) of MAP relative to control response: following SNP (10 μg/kg/min) depressor challenge, maximal blockade, 3 mg/kg L-NAME in TRZ combinations; for Rate of Recovery (mmHg/s): following SNP (30 μg/kg/min) depressor challenge, 10 second interval after onset of recovery; for Overshoot: Change vs Control: following SNP (10 mg/kg/min) depressor challenge; for Rate of Recovery: Change vs Control: following SNP (30 mg/kg/min) depressor challenge
# Procedure: as §1
# In Examples 2, 3 and 4, we used a 30 second infusion of SNP to induce a transient depressor response (less than 1 minute) in order to assess mechanisms involved in homeostatic adjustment, in each case comparing treatment to the respective control response (FIG. 8, Table 3). […] In contrast, after α1-adrenoceptor antagonism the response to the depressor challenge was altered such that there was a marked overshoot of MAP above baseline during the recovery phase. In some instances MAP took in excess of five minutes to return to baseline following the overshoot. […] This response was unchanged by NOS antagonism (FIG. 8b) and RAS inhibition (FIG. 8c).
# In addition, we characterized the rate of recovery of MAP as determined by the upward slope of the arterial blood pressure trace during a 10 second interval immediately after the onset of recovery (Table 4). […] In contrast, the combination of alpha-blockade and NOS antagonism doubled the magnitude of the recovery slope.
# [4] = Vascular reactivity: depressor response to NO-mimetic glyceryl trinitrate (GTN) infusion; type: in vivo, rat
# Procedure: as §1, §2
# NOS blockade hypertension also results in a hypersensitivity to NO-mimetics such as SNP and GTN. This set of experiments examined whether alpha-adrenoceptor antagonism and/or complete removal of α-signaling could also alter vascular reactivity to exogenous NO. Dose response curves to 30 second infusions of the NO-mimetics sodium nitroprusside (1-30 μg/kg/min SNP i.v.) or glyceryl trinitrate (25-1600 μg/kg/min GTN i.v.) were generated in control animals to determine normal vasodilatory reactivity to exogenous NO. Reactivity was then determined following minimal and maximal NOS blockade by administration of a low dose followed by a high dose of L-NAME (3 and 30 mg/kg L-NAME i.v., respectively). […] In these animals additional dose responses to each NO-donor were performed after initial alpha-adrenoceptor antagonism and before L-NAME treatment. Further assessment of the impact of removal of α1-adrenoceptor signaling was made through ganglionic blockade with hexamethonium (30 mg/kg i.v.). Down-stream sympathetic signaling is effectively abolished by completely blocking the ganglia with hexamethonium. After establishment of a control dose response to SNP, maximal ganglionic blockade was induced and MAP was allowed to reach a steady state. The vascular reactivity to SNP was reassessed after hexamethonium alone and following both a low then high dose of L-NAME (3 and 30 mg/kg L-NAME i.v., respectively).
# [5] = NO-selectivity of depressor responses before and after maximal NOS blockade with L-NAME; type: in vivo, rat; settings: for Change in Depressor Response: after vs before 100 mg/kg L-NAME; for Δ MAP L-NAME 100 mg/kg (mmHg): depressor agent after maximal NOS blockade with 100 mg/kg L-NAME; for Δ MAP Control (mmHg): depressor agent before L-NAME
# Procedure: as §1
# Hypersensitivity to NO-mimetics following NOS blockade is shown to be the result of a specific interaction between ET and depressor agents that target the NO pathway. To confirm the specificity of this interaction, dose responses to a variety of depressor agents targeting both NO-dependent and NO-independent pathways were performed before and after maximal NOS blockade with 100 mg/kg L-NAME. One dose of each depressor agent that decreased MAP by approximately 10 mmHg was chosen for analysis. The agents compared were SNP ([…]; 30 s infusion), 8-bromo-cGMP (8-Br-cGMP; 3000 mg/kg/min; cumulative from 30, 100, 300, 1000, 3000 dose response, 2 min infusion, 3 min between doses), bradykinin (30 mg/kg/min; 30 s infusion), PGE1 ([…]; cumulative dose response, 20 min/dose) and INE (0.2 mg/kg/min; 30 s infusion).
# [6] = compared with the placebo group; cited from earlier work
# [7] = treatment alone at maximal blockade (L-NAME 30 mg/kg), GTN 25-1600 μg/kg/min i.v.
Compound,Overshoot (mmHg) of MAP relative to control response [3] [mmHg],Rate of Recovery (mmHg/s) [3] [mmHg/s],Overshoot: Change vs Control [3],Rate of Recovery: Change vs Control [3],Δ MAP (from initial baseline; mmHg) [1] [mmHg],Change in Vascular Response to SNP [2],depressor response to SNP [2],Change in Depressor Response [5],Δ MAP L-NAME 100 mg/kg (mmHg) [5] [mmHg],Δ MAP Control (mmHg) [5] [mmHg],further results
CCCOc1ccc2c(c1)[C@@H](c1ccc(OC)cc1OCC(=O)O)[C@H](C(=O)O)[C@H]2c1ccc2c(c1)OCO2 [SB209670],0.5 ± 4.98,1.4 ± 1.00,←→,←→,–,–,–,–,–,–,"effect on MAP vs control ([1]; SB209670 alone): did not lower MAP significantly; MAP ([1]; SB209670 i.v. bolus then 100 μg/kg/min infusion, alone, control 98.29±6.43): 90.41±4.36 mmHg; MAP after terazosin treatment [1]: 51.83±4.02 mmHg; enhanced SNP response with terazosin combined with moderate NOS antagonism ([2]; terazosin 2 mg/kg + L-NAME 3 mg/kg + SB209670): prevented; dose response to SNP after terazosin treatment ([2]; terazosin 2 mg/kg i.v. in animals receiving SB209670): significantly blunted; overshoot of MAP in treatment groups demonstrating overshoot ([3]; co-administration with alpha-adrenoceptor antagonist with or without NOS antagonist): abolished"
"COC(=O)[C@@H](N)CCCNC(=N)N[N+](=O)[O-] [L-NAME, N^ω-nitro-L-arginine-methyl ester]",−1.6 ± 3.68,1.2 ± 0.73,←→,←→,36 ± 11.1,↑,enhanced,–,–,–,"vascular reactivity to GTN ([4]; moderate NOS blockade, 3 mg/kg L-NAME alone): did not produce a significant change; depressor response to GTN [4, 7]: enhanced"
CCCCC[C@H](O)/C=C/[C@H]1[C@H](O)CC(=O)[C@@H]1CCCCCCC(=O)O [PGE1],–,–,–,–,–,–,–,←→,−15.51 ± 9.74,−15.21 ± 5.72,–
"C[N+](C)(C)CCCCCC[N+](C)(C)C [Hexamethonium, hexamethonium]",–,–,–,–,−18 ± 10.0,↑,induced an almost identical pattern of hypersensitivity,–,–,–,depressor response to SNP in the presence of L-NAME [2]: further enhanced
O=[N+]([O-])O[C@H]1CO[C@H]2[C@@H]1OC[C@H]2O[N+](=O)[O-] [isosorbide dinitrate],–,–,–,–,–,–,–,–,–,–,mortality among patients with chronic congestive heart failure [6]: reduced significantly
"CC(C)NCC(O)c1ccc(O)c(O)c1 (stereo not drawn) [Isopropyl-norepinephrine (INE), Isopropyl-norepinephrine]",–,–,–,–,–,–,–,←→,−10.52 ± 4.04,−9.42 ± 7.38,–
"COc1cc2nc(N3CCN(C(=O)C4CCCO4)CC3)nc(N)c2cc1OC (stereo not drawn) [Terazosin, terazosin]",45 ± 5.19,1.2 ± 0.42,↑,←→,−28 ± 18.5,↑,enhanced,–,–,–,"decrease in MAP ([1]; losartan + enalaprilat 30 mg/kg i.p. 1:1 vs terazosin alone): 28.09±18.49; MAP after terazosin treatment [1]: 77.37±17.48 mmHg; depressor response to SNP in the presence of L-NAME [2]: enhanced relative to control; depressor response to GTN ([4]; terazosin combined with moderate NOS blockade (3 mg/kg L-NAME)): significantly enhanced; depressor response to GTN [4, 7]: only statistically significant at the highest dose of GTN"
CCCCc1nc(Cl)c(CO)n1Cc1ccc(-c2ccccc2-c2nn[nH]n2)cc1 [losartan],–,–,–,–,–,–,failed to increase the sensitivity,–,–,–,–
"Nc1nc2c(nc(Br)n2[C@@H]2O[C@@H]3COP(=O)(O)O[C@H]3[C@H]2O)c(=O)[nH]1 [8-Br-cGMP, 8-bromo-cyclic-GMP]",–,–,–,–,–,–,–,↑↑,−26.57 ± 6.76,−0.67 ± 2.83,–
COc1cc2nc(N3CCN(C(=O)c4ccco4)CC3)nc(N)c2cc1OC [prazosin],–,–,–,–,–,–,–,–,–,–,"lowering of MAP after alpha-adrenoceptor antagonist ([1]; prazosin 3 mg/kg i.v. or terazosin 2 mg/kg i.v., steady state, conscious rats): 36.35±13.96 mmHg; mortality among patients with chronic congestive heart failure [6]: the same"
